Results as given in the supplement of paper PMC10307832.

Legend:
Assay in all cases: relative viability (nuclei count vs DMSO), 5 days (fraction); higher = more cells survive
[1] = compound: C=CCc1cccc(/C=N/NC(=O)CN2CCN(Cc3ccccc3)CC2)c1O [PAC-1] + COc1cc2c(Oc3ccc(NC(=O)C4(C(=O)Nc5ccc(F)cc5)CC4)cc3F)ccnc2cc1OCCCN1CCOCC1 [Foretinib] (partner 0.25 µM)
Outline: (§1)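 One day after seeding in 1536-well plates, lung cancer cell lines were dosed by pin tool. Dosing was either single-drug or a fixed anchor-drug dose plus five library-drug doses (not always all listed) in √10 steps. After 5 days, nuclei were stained in one fix-and-stain step and counted on 4× images, and relative viability is the nuclei count of treated wells over that of vehicle wells, given as the median of duplicate plates.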

[2] = compound: C=CCc1cccc(/C=N/NC(=O)CN2CCN(Cc3ccccc3)CC2)c1O [PAC-1] + COc1cccc2cc(-c3nc([C@H]4CC[C@H](C(=O)O)CC4)n4ncnc(N)c34)[nH]c12 [OSI-027] (partner 0.5 µM)
Outline: as §1

[3] = compound: C=CCc1cccc(/C=N/NC(=O)CN2CCN(Cc3ccccc3)CC2)c1O [PAC-1] + Cc1nc(NC(=O)N2CCC[C@H]2C(N)=O)sc1-c1ccnc(C(C)(C)C(F)(F)F)c1 [Alpelisib] (partner 2 µM)
Outline: as §1

[4] = compound: C=CCc1cccc(/C=N/NC(=O)CN2CCN(Cc3ccccc3)CC2)c1O [PAC-1] + NC(=O)Nc1cc(-c2cccc(F)c2)sc1C(=O)N[C@H]1CCCNC1 [AZD7762] (partner 0.2 µM)
Outline: as §1

[5] = compound: C=CCc1cccc(/C=N/NC(=O)CN2CCN(Cc3ccccc3)CC2)c1O [PAC-1] + Nc1nc2[nH]cc(CCc3ccc(C(=O)N[C@@H](CCC(=O)O)C(=O)O)cc3)c2c(=O)[nH]1 [Pemetrexed] (partner 0.2 µM)
Outline: as §1

Cell Line | relative viability ([1]; first compound 0.02 µM) | relative viability ([1]; first compound 0.06325 µM) | relative viability ([1]; first compound 0.2 µM) | relative viability ([1]; first compound 2 µM) | relative viability ([2]; first compound 0.02 µM) | relative viability ([2]; first compound 0.06325 µM) | relative viability ([2]; first compound 0.2 µM) | relative viability ([2]; first compound 2 µM) | relative viability ([3]; first compound 0.02 µM) | relative viability ([3]; first compound 0.06325 µM) | relative viability ([3]; first compound 0.2 µM) | relative viability ([3]; first compound 2 µM) | relative viability ([4]; first compound 0.02 µM) | relative viability ([4]; first compound 0.06325 µM) | relative viability ([4]; first compound 0.2 µM) | relative viability ([4]; first compound 2 µM) | relative viability ([5]; first compound 0.02 µM) | relative viability ([5]; first compound 0.06325 µM) | relative viability ([5]; first compound 0.2 µM) | relative viability ([5]; first compound 2 µM)
201T | 0.998 | 1.22 | 1.15 | 1.11 | 0.702 | 0.754 | 0.848 | 0.839 | 0.935 | 1 | 1.03 | 1.01 | 0.625 | 0.59 | 0.571 | 0.567 | 0.316 | 0.303 | 0.314 | 0.334
A549 | 0.952 | 0.964 | 1.04 | 1.01 | – | – | – | – | 0.718 | 0.727 | 0.694 | 0.707 | – | – | – | – | – | – | – | –
A-427 | 1.12 | 0.946 | 1.09 | 1.08 | 0.434 | 0.481 | 0.47 | 0.476 | 1.17 | 1.08 | 1.05 | 1.05 | 0.774 | 0.734 | 0.713 | 0.702 | 0.992 | 1.01 | 1.09 | 0.977
ABC-1 | 0.991 | 1.19 | 1 | 1.01 | 0.478 | 0.44 | 0.468 | 0.457 | 1.11 | 1.06 | 1.1 | 1.28 | 0.952 | 0.871 | 0.628 | 0.975 | – | – | – | –
BEN | 0.68 | 0.651 | 0.589 | 0.678 | 0.303 | 0.264 | 0.291 | 0.289 | 1.04 | 1.1 | 1.09 | 0.965 | 0.712 | 0.626 | 0.618 | 0.828 | 0.719 | 0.74 | 0.718 | 0.655
CAL-12T | 1.15 | 1.1 | 0.978 | 1.08 | 0.673 | 0.723 | 0.567 | 0.645 | 1.13 | 1.18 | 1.16 | 1.37 | 0.579 | 0.621 | 0.626 | 0.6 | 1.22 | 1.23 | 1.15 | 1.16
COR-L23 | 1.01 | 1.02 | 0.902 | 0.951 | 0.885 | 0.771 | 0.724 | 0.698 | 0.715 | 0.812 | 0.693 | 0.816 | – | – | – | – | 0.206 | 0.192 | – | 0.206
COR-L 105 | 0.991 | 1.16 | 1.25 | 1.31 | 0.756 | 0.669 | 0.615 | 0.756 | 0.736 | 1.22 | 1.04 | 1.24 | – | – | – | – | 0.983 | 1.1 | 1.04 | 1.05
Calu-6 | 0.883 | 0.89 | 0.952 | 0.944 | – | – | – | – | 0.929 | 1.03 | 0.931 | 1.13 | – | – | – | – | – | – | – | –
ChaGo-K-1 | 0.974 | 0.949 | 0.866 | 1.04 | 0.623 | 0.617 | 0.57 | 0.635 | – | – | – | – | 0.858 | 0.907 | 0.861 | 0.9 | 0.256 | 0.252 | 0.258 | 0.265
EBC-1 | 0.105 | 0.0969 | 0.139 | 0.121 | – | – | – | – | 0.769 | 0.808 | 0.736 | 0.809 | – | – | – | – | – | – | – | –
EKVX | 0.886 | 0.792 | 0.69 | 0.427 | 0.744 | 0.674 | 0.696 | 0.702 | 0.788 | 0.956 | 0.801 | 0.899 | 0.638 | 0.75 | 0.664 | 0.62 | 0.356 | 0.407 | 0.355 | 0.395
EMC-BAC-2 | 0.999 | 1.04 | 0.936 | 0.996 | 0.367 | 0.363 | 0.371 | 0.382 | 0.72 | 0.801 | 0.737 | 0.67 | 1.13 | 1.24 | 1.19 | 1.15 | 0.49 | 0.479 | 0.46 | 0.464
EPLC-272H | 0.605 | 0.683 | 0.68 | 0.721 | 0.312 | 0.27 | 0.22 | 0.262 | – | 0.96 | 0.817 | 0.764 | 0.177 | 0.295 | 0.134 | 0.22 | 0.355 | 0.32 | 0.341 | 0.348
H3255 | 0.925 | 0.814 | 0.883 | 0.89 | 0.604 | 0.487 | 0.558 | 0.611 | 0.823 | 0.78 | 0.702 | 0.717 | 0.993 | 0.802 | 0.772 | 0.931 | 0.601 | 0.521 | 0.495 | 0.596
HARA | 0.675 | 0.833 | 0.863 | 0.918 | 0.487 | 0.54 | 0.426 | 0.504 | 0.735 | 0.809 | 0.779 | 0.928 | 0.229 | 0.304 | 0.0838 | 0.457 | 0.23 | 0.234 | 0.264 | 0.239
HCC-15 | 0.993 | 1.08 | 0.985 | 1.04 | 0.668 | 0.726 | 0.672 | 0.684 | 0.924 | 0.831 | 0.854 | 0.851 | 1.34 | 1.35 | 0.884 | 1.35 | 0.216 | 0.234 | 0.247 | 0.22
HCC-44 | – | – | – | – | 0.486 | 0.62 | 0.607 | 0.585 | 0.782 | 0.875 | 0.774 | 0.855 | 1.09 | 0.998 | 1.03 | 0.992 | 0.649 | 0.615 | 0.588 | 0.684
